Literature values, collected in patent US20180243282A1, “Preparation and Use of Combination Enzyme and Gastrointestinal Modulator Delivery Systems” (Curemark, LLC, priority 2010, published 2018).

Experiments:
[1] = in vivo
[2] = in vivo; remark: listed apart in the source
[3] = acidic conditions in the stomach

CN/C(=N/CCSCc1nc[nH]c1C)NC#N [cimetidine]
clearance by hemodialysis [1]: cleared by hemodialysis

Bismuth
excretion [2]: excreted in the feces
systemic absorption [2]: largely unabsorbed

sucralfate
protective coating lasts [3]: up to 6 hours
systemic absorption [2]: lack of systemic absorption
systemic toxicity [2]: no systemic toxicity
